Assay results from US11814364B2, “Pyridine N-oxide derivatives useful as factor XIa inhibitors” (Janssen Pharmaceutica NV, priority 2021, dated 2023).

Molecular target: human plasma kallikrein (Homo sapiens, UniProt P03952)
Assay: Kallikrein inhibition FLINT assay with quenched AMC peptide substrate Z-Gly-Pro-Arg-AMC (end point EP or kinetic KIN reads)
Format: biochemical
Settings: kinetic reads at 5 min intervals over 30 min; read-out: Kallikrein (KIN) IC50
Method in brief: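 Enzyme and compound were preincubated 30 min before adding 50 μM AMC substrate in pH 7.5 Tris/NaCl/CaCl2/BSA/CHAPS buffer. AMC release was read at 30 min endpoint or every 5 min.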

human plasma kallikrein, sequence (P03952 391-638 limits assumed): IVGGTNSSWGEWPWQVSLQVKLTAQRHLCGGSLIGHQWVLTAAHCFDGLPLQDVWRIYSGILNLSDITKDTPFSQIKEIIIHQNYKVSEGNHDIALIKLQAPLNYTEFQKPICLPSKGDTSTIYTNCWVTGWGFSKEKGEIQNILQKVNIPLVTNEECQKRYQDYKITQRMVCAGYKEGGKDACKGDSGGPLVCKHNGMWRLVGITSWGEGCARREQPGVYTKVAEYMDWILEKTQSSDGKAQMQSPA
human plasma kallikrein, sequence (P03952 20-390 partner limits assumed): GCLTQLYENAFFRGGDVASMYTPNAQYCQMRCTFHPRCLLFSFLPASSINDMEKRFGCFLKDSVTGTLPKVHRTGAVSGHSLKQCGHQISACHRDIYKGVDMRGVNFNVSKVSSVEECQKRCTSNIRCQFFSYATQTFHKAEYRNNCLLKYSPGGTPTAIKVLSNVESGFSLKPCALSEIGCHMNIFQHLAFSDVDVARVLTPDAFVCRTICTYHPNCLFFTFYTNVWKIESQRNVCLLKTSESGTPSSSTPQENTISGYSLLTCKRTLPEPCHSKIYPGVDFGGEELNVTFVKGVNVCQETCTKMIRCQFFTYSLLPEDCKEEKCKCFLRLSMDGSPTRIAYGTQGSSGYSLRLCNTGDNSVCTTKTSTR

SMILES | IC50 [nM]
Cn1ncnc1-c1cnn(C(CCOC(F)F)c2ccc(-c3c(N)ccc(Cl)c3F)c[n+]2[O-])c1 (centres unmarked) [Example Q45] | 231
Cc1ncsc1-c1cnn(C(CC2CC2)c2ccc(-c3c(-n4cnnn4)ccc(Cl)c3F)c[n+]2[O-])c1 (centres unmarked) [Example P488] | 92.5
[O-][n+]1cc(-c2cc(Cl)ccc2-n2cnnn2)ccc1C(Cc1ccc(Cl)cc1)n1cc(-c2ccc(OC(F)(F)F)cc2)cn1 (centres unmarked) [Example P150] | 397
[2H]C([2H])(C[C@H](c1ccc(-c2c(-n3cnnn3)ccc(Cl)c2F)c[n+]1[O-])n1cc(-c2cn(C)nc2Cl)cn1)OC(F)F [Example P850] | 1.4
Cn1ncc(O)c1-c1cnn(C(CCOC(F)F)c2ccc(-c3c(-n4cc(Cl)nn4)ccc(Cl)c3F)c[n+]2[O-])c1 (centres unmarked) [Example P747] | 26.2
NC(=O)C1CC1CC(c1ccc(-c2c(-n3cnnn3)ccc(Cl)c2F)c[n+]1[O-])n1cc(-c2ccncc2)cn1 (centres unmarked) [Example P260] | 72.5
COc1ccc(CC(c2ccc(-c3cc(Cl)ccc3-n3cnnn3)c[n+]2[O-])n2cc(-c3ccc(C(=O)NC4CC4)cc3)cn2)cc1 (centres unmarked) [Example P86] | 23
CN(CC(c1ccc(-c2c(-n3cnnn3)ccc(Cl)c2F)c[n+]1[O-])n1cc(-c2ccncc2)cn1)C(=O)CC(=O)N1CCCCC1 (centres unmarked) [Example P322] | 83.4
[O-][n+]1cc(-c2c(-n3cnnn3)ccc(Cl)c2F)ccc1C(CCOC(F)F)n1cc(-c2cn(C(F)F)nn2)cn1 (single isomer, unassigned) [Example P660] | 287
[O-][n+]1cc(-c2c(-n3cnnn3)ccc(Cl)c2F)ccc1C(CC1CC1)n1cc(-c2cnco2)cn1 (centres unmarked) [Example P455] | 496
COC(=O)Nc1ccc(-c2cnn(C(CC3CCCO3)c3ccc(-c4c(-n5cnnn5)ccc(Cl)c4F)c[n+]3[O-])c2)cc1 (centres unmarked) [Example P203] | 63.3
[O-][n+]1cc(-c2c(-n3cnnn3)ccc(Cl)c2F)ccc1[C@H](Cn1cc(F)cn1)n1cc(-c2cncs2)cn1 [Example P493] | 179
Nc1ccc(-c2cnn(C(Cn3cc(F)cn3)c3ccc(-c4c(-n5cnnn5)ccc(Cl)c4F)c[n+]3[O-])c2)c(F)n1 (centres unmarked) [Example P281] | 2.6
O=C1CCCN1CC(c1ccc(-c2c(-n3cnnn3)ccc(Cl)c2F)c[n+]1[O-])n1cc(-c2ccnc(F)c2)cn1 (centres unmarked) [Example P257] | 7.1
[O-][n+]1cc(-c2c(-n3cnnn3)ccc(Cl)c2F)ccc1C(CC1CC1)n1cc(-c2cnn(C(F)(F)F)c2)cn1 (centres unmarked) [Example P708] | 658
O=C(O)c1ccc(-c2cnn([C@H](CCOC(F)F)c3ccc(-c4c(C(F)F)ccc(Cl)c4F)c[n+]3[O-])c2)cc1 [Example Q35] | 4
[O-][n+]1cc(-c2c(-n3cnnn3)ccc(Cl)c2F)ccc1C(CCOC(F)F)n1cc(-c2ccnc(C(F)(F)F)c2)cn1 (centres unmarked) [Example P462] | 14.3
COc1ccc(CC(c2ccc(-c3c(-n4cnnn4)ccc(Cl)c3F)c[n+]2[O-])n2cc(-c3ccc(C(=O)NC4CC4)cc3)cn2)cc1 (centres unmarked) [Example P135] | 10.8
COC(=O)Nc1ccc(-c2cnn(C(CC3CC3C(=O)N3CCCC(c4ccccc4)C3)c3ccc(-c4c(-n5cnnn5)ccc(Cl)c4F)c[n+]3[O-])c2)cc1 (centres unmarked) [Example P222] | 189
O=C(O)c1ccc(-c2cnn(C(Cc3ccn(C(F)F)n3)c3ccc(-c4c(-n5cc(C(F)(F)F)nn5)ccc(Cl)c4F)c[n+]3[O-])c2)cc1F (single isomer, unassigned) [Example P931] | 2.5
NC(=O)c1ccn(CC(c2ccc(-c3c(-n4cnnn4)ccc(Cl)c3F)c[n+]2[O-])n2cc(-c3ccncc3)cn2)n1 (centres unmarked) [Example P443] | 1.7
O=C(O)c1ccc(-c2cnn([C@H](CCOC(F)F)c3ccc(-c4c(-n5cc(C(F)(F)F)nn5)ccc(Cl)c4F)c[n+]3[O-])c2)cc1 [Example P858] | 11.6
NC(=O)c1ccnn1CC(c1ccc(-c2c(C(F)F)ccc(Cl)c2F)c[n+]1[O-])n1cc(-c2ccnc(C(F)(F)F)c2)cn1 (single isomer, unassigned) [Example Q27] | 4.7
